Measurements from PubChem BioAssay AID272 (DTP/NCI, 2004).
Records with an inconclusive call do not appear.

Tested on: Lewis lung carcinoma i.m., BDF1 mice, T/C %
Test: NCI In Vivo Anticancer Drug Screen. Data for tumor model Lewis Lung Carcinoma (intramuscular) in B6D2F1 (BDF1) mice
In short: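 Mice carrying transplantable tumours received test compound. Survival or tumour size was recorded and expressed as the treated-group value (T) divided by the vehicle-treated control-group value (C).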

**Q.** Which T/C (endpoint: mean tumor weight, dose: 37.5 mg/kg/injection, schedule: Q01DX011 (ip), vehicle: saline, higher = larger tumour) does the source give for `O=C[C@@H](CO)O[C@H](C=O)n1cnc2c(=O)[nH]cnc21` here?
**A.** 53 % of control

**Q.** What about the T/C (endpoint: mean tumor weight, dose: 39.0 mg/kg/injection, schedule: Q01DX011 (ip), vehicle: saline, higher = larger tumour) of the same compound?
**A.** 49 % of control

**Q.** And the T/C (endpoint: mean tumor weight, dose: 65.0 mg/kg/injection, schedule: Q01DX011 (ip), vehicle: saline, higher = larger tumour)?
**A.** 74 % of control

**Q.** And the T/C (endpoint: mean tumor weight, dose: 75.0 mg/kg/injection, schedule: Q01DX011 (ip), vehicle: saline, higher = larger tumour)?
**A.** 71 % of control

**Q.** What about the T/C (endpoint: mean tumor weight, dose: 108.0 mg/kg/injection, schedule: Q01DX011 (ip), vehicle: saline, higher = larger tumour) of the same compound?
**A.** 60 % of control

**Q.** And the T/C (endpoint: mean tumor weight, dose: 150.0 mg/kg/injection, schedule: Q01DX011 (ip), vehicle: saline, higher = larger tumour)?
**A.** 46 % of control

**Q.** And the T/C (endpoint: median survival time, dose: 39.0 mg/kg/injection, schedule: Q01DX011 (ip), vehicle: saline, higher = longer survival)?
**A.** 115 % of control

**Q.** What about the T/C (endpoint: median survival time, dose: 65.0 mg/kg/injection, schedule: Q01DX011 (ip), vehicle: saline, higher = longer survival) of the same compound?
**A.** 115 % of control

**Q.** And the T/C (endpoint: median survival time, dose: 75.0 mg/kg/injection, schedule: Q01DX011 (ip), vehicle: saline, higher = longer survival)?
**A.** 113 % of control

**Q.** And the T/C (endpoint: median survival time, dose: 108.0 mg/kg/injection, schedule: Q01DX011 (ip), vehicle: saline, higher = longer survival)?
**A.** 103 % of control

**Q.** Which results are given for `Cc1nc(N)c(C)c(C(=O)O)n1`?
**A.** T/C (endpoint: median survival time, dose: 4.0 mg/kg/injection, schedule: Q01DX009 (ip), vehicle: water, higher = longer survival): 110 % of control; T/C (endpoint: median survival time, dose: 8.0 mg/kg/injection, schedule: Q01DX009 (ip), vehicle: water, higher = longer survival): 105 % of control; T/C (endpoint: median survival time, dose: 64.0 mg/kg/injection, schedule: Q01DX009 (ip), vehicle: water, higher = longer survival): 92 % of control

**Q.** For `COc1ccc(N=O)c(O)c1`, which T/C (endpoint: median survival time, dose: 25.0 mg/kg/injection, schedule: Q01DX011 (ip), vehicle: saline, higher = longer survival) is on record?
**A.** 97 % of control

**Q.** And the T/C (endpoint: median survival time, dose: 50.0 mg/kg/injection, schedule: Q01DX011 (ip), vehicle: saline, higher = longer survival)?
**A.** 100 % of control

**Q.** What about the T/C (endpoint: median survival time, dose: 100.0 mg/kg/injection, schedule: Q01DX011 (ip), vehicle: saline, higher = longer survival) of the same compound?
**A.** 110 % of control
